Measured values taken from US9682995B2, “Amino-substituted isothiazoles” (BAYER PHARMA AKTIENGESELLSCHAFT, priority 2013, dated 2017).

Key:
[1] = target: CDK2/CycE (Homo sapiens (Human), UniProt P24941); test: CDK2/CycE kinase assay (TR-FRET); type: biochemical; details: 10 μM ATP; read-out: CDK2 avg (IC50 [mol/l])
Source text: CDK2/CycE-inhibitory activity of compounds of the present invention was quantified employing the CDK2/CycE TR-FRET assay as described in the following paragraphs.
Recombinant fusion proteins of GST and human CDK2 and of GST and human CycE, expressed in insect cells (Sf9) and purified by Glutathion-Sepharose affinity chromatography, were purchased from ProQinase GmbH (Freiburg, Germany). As substrate for the kinase reaction biotinylated peptide biotin-Ttds-YISPLKSPYKISEG (C-terminus in amid form) was used which can be purchased e.g. form the company JERINI peptide technologies (Berlin, Germany).
For the assay 50 nl of a 100 fold concentrated solution of the test compound in DMSO was pipetted into a black low volume 384 well microtiter plate (Greiner Bio-One, Frickenhausen, Germany), 2 μl of a solution of CDK2/CycE in aqueous assay buffer [50 mM Tris/HCl pH 8.0, 10 mM MgCl2, 1.0 mM dithiothreitol, 0.1 mM sodium ortho-vanadate, 0.01% (v/v) Nonidet-P40 (Sigma)] were added and the mixture was incubated for 15 min at 22° C. to allow pre-binding of the test compounds to the enzyme before the start of the kinase reaction. Then the kinase reaction was started by the addition of 3 μl of a solution of adenosine-tri-phosphate (ATP, 16.7 μM=>final conc. in the 5 μl assay volume is 10 μM) and substrate (1.25 μM=>final conc. in the 5 μl assay volume is 0.75 μM) in assay buffer and the resulting mixture was incubated for a reaction time of 25 min at 22° C. The concentration of CDK2/CycE was adjusted depending of the activity of the enzyme lot and was chosen appropriate to have the assay in the linear range, typical concentrations were in the range of 130 ng/ml. The reaction was stopped by the addition of 5 μl of a solution of TR-FRET detection reagents (0.2 μM streptavidine-XL665 [Cisbio Bioassays, Codolet, France] and 1 nM anti-RB(pSer807/pSer811)-antibody from BD Pharmingen [#558389] and 1.2 nM LANCE EU-W1024 labeled anti-mouse IgG antibody [Perkin-Elmer, product no. AD0077, as an alternative a Terbium-cryptate-labeled anti-mouse IgG antibody from Cisbio Bioassays can be used]) in an aqueous EDTA-solution (100 mM EDTA, 0.2% (w/v) bovine serum albumin in 100 mM HEPES/NaOH pH 7.0).
The resulting mixture was incubated 1 h at 22° C. to allow the formation of complex between the phosphorylated biotinylated peptide and the detection reagents. Subsequently the amount of phosphorylated substrate was evaluated by measurement of the resonance energy transfer from the Eu-chelate to the streptavidine-XL. Therefore, the fluorescence emissions at 620 nm and 665 nm after excitation at 350 nm was measured in a TR-FRET reader, e.g. a Rubystar (BMG Labtechnologies, Offenburg, Germany) or a Viewlux (Perkin-Elmer). The ratio of the emissions at 665 nm and at […] was taken as the measure for the amount of phosphorylated substrate. The data were normalised (enzyme reaction without inhibitor=0% inhibition, all other assay components but no enzyme=100% inhibition).

[2] = system: spindle assembly checkpoint; test: SAC-Formation - Paclitaxel-Induced Assay; type: cell-based; details: Homo sapiens; HeLa cells, paclitaxel 0.05 μM, 24 h, phosphorylated histone H3 on serine 10
Source text: The spindle assembly checkpoint assures the proper segregation of chromosomes during mitosis. Upon entry into mitosis, chromosomes begin to condensate which is accompanied by the phosphorylation of histone H3 on serine 10. Dephosphorylation of histone H3 on serine 10 begins in anaphase and ends at early telophase. Accordingly, phosphorylation of histone H3 on serine 10 can be utilized as a marker of cells in mitosis. Nocodazole is a microtubule destabilizing substance. Paclitaxel is a microtubule stabilizing compound. Thus, nocodazole as well as paclitaxel interfere with microtubule dynamics and mobilize the spindle assembly checkpoint. […] The mitotic breakthrough can be detected by the decrease of cells with phosphorylation of histone H3 on serine 10. This decline is used as a marker to determine the capability of compounds of the present invention to induce a mitotic breakthrough. The typical morphological alteration of nuclei with a prematurely completed mitosis after SAC-inhibition can be monitored via image analysis routines supporting those findings.
The nocodazole and paclitaxel variations were used to focus on compounds that are capable of inhibiting a SAC induced by both microtubule destabilization as well as microtubule stabilization. When SAC inducing agents and compounds are given simultaneously, inhibitors that effectively block the SAC during formation or abrogation are identified. When cells are incubated with a SAC inducing agent and the SAC interfering compound is given after a defined time, inhibitors are identified that effectively block SAC abrogation.
Cultivated cells of the human cervical tumor cell line HeLa (ATCC CCL-2) were plated at a density of 1000 cells/well in a 1536-well microtiter plate in 2 μl PAA Ham's F12 Medium supplemented with 1% (v/v) glutamine, 1% (v/v) penicillin, 1% (v/v) streptomycin and 10% (v/v) fetal calf serum. After incubation overnight at 37° C., 10 μl/well paclitaxel at a final concentration of 0.05 μM were added to cells. Test compounds solubilized in dimethyl sulfoxide (DMSO) were added at various concentrations (0 μM, as well as in the range of 0.005 μM-20 μM; the final concentration of the solvent DMSO was 0.5% (v/v)). Cells were incubated for 24 h at 37° C. in the presence of test compounds in combination with paclitaxel. Thereafter, cells were fixed in 4% (v/v) paraformaldehyde in phosphate buffered saline (PBS) at 4° C. overnight then permeabilized in 0.1% (v/v) Triton X™ 100 in PBS at room temperature for 20 min and blocked in 0.5% (v/v) bovine serum albumin (BSA) in PBS at room temperature for 15 min. After washing with PBS, 5 μl/well antibody solution (anti-phospho-histone H3 clone 3H10, FITC; Millipore, Cat #16-222; 1:1000 dilution) was added to cells, which were incubated for 2 h at room temperature. Afterwards, cells were washed with PBS and 5 μl/well solution of HOECHST 33342 dye (5 μg/ml) was added to cells and cells were incubated 15 min at room temperature in the dark. Cells were washed twice with PBS then covered with PBS and stored at 4° C. until analysis. Images were acquired with a PERKIN ELMER OPERA™ High-Content Analysis reader. Images were analyzed with image analysis software MetaXpress™ from Molecular devices utilizing the Mitotic Index application module. In this assay both labels HOECHST 33342 and phosphorylated Histone H3 on serine 10 were measured. HOECHST 33342 labels the DNA and is used to count the cell number. The staining of phosphorylated Histone H3 on serine 10 determines the number of mitotic cells. […] Otherwise cells were arrested at G2/M phase of the cell cycle progression. The raw assay data were further analyzed by four-parametric hill equation using Genedata's Assay Analyzer and Condoseo software.

COc1ccc(NC(=O)c2c(C)nsc2Nc2cnc3cc(C(F)(F)F)ccc3n2)cn1 [Example 45, N-(6-Methoxypyridin-3-yl)-3-methyl-5-{[6-(trifluoromethyl)quinoxalin-2-yl]amino}-1,2-thiazole-4-carboxamide]
IC50 [1]: > 20000 nM
IC50 [2]: 140 nM

Cc1nsc(Nc2cnc3cc(F)ccc3n2)c1C(=O)Nc1ccc(F)c(F)c1 [Example 46, N-(3,4-Difluorophenyl)-5-[(6-fluoroquinoxalin-2-yl)amino]-3-methyl-1,2-thiazole-4-carboxamide]
IC50 [1]: > 20000 nM
IC50 [2]: 34 nM

COc1ccc(NC(=O)c2c(C)nsc2Nc2nc3c(C(F)(F)F)cccc3s2)cc1F [Example 47, N-(3-Fluoro-4-methoxyphenyl)-3-methyl-5-{[4-(trifluoromethyl)-1,3-benzothiazol-2-yl]amino}-1,2-thiazole-4-carboxamide]
IC50 [1]: > 20000 nM
IC50 [2]: 63 nM

COc1ccc(NC(=O)c2c(C)nsc2Nc2nc3c(C(F)(F)F)cccc3s2)cn1 [Example 48, N-(6-Methoxypyridin-3-yl)-3-methyl-5-{[4-(trifluoromethyl)-1,3-benzothiazol-2-yl]-amino}-1,2-thiazole-4-carboxamide]
IC50 [1]: > 20000 nM
IC50 [2]: 140 nM

Cc1nsc(Nc2ncc(C(=O)N(C)C)s2)c1C(=O)Nc1ccc(F)c(F)c1 [Example 49, N-(3,4-Difluorophenyl)-5-{[5-(dimethylcarbamoyl)-1,3-thiazol-2-yl]amino}-3-methyl-1,2-thiazole-4-carboxamide]
IC50 [1]: > 20000 nM
IC50 [2]: 960 nM

Cc1nsc(Nc2cnc3ccccc3n2)c1C(=O)Nc1ccc(F)c(F)c1 [Example 50, N-(3,4-Difluorophenyl)-3-methyl-5-(quinoxalin-2-ylamino)-1,2-thiazole-4-carboxamide]
IC50 [1]: > 20000 nM
IC50 [2]: 28 nM

Cc1nsc(Nc2nc3c(C(F)(F)F)cccc3s2)c1C(=O)Nc1ccc(F)c(F)c1 [Example 51, N-(3,4-Difluorophenyl)-3-methyl-5-{[4-(trifluoromethyl)-1,3-benzothiazol-2-yl]-amino}-1,2-thiazole-4-carboxamide]
IC50 [1]: > 20000 nM
IC50 [2]: 35 nM

Cc1nsc(Nc2ccc(C#N)cn2)c1C(=O)Nc1ccc(Cl)c(F)c1 [Example 52, N-(4-Chloro-3-fluorophenyl)-5-[(5-cyanopyridin-2-yl)amino]-3-methyl-1,2-thiazole-4-carboxamide]
IC50 [1]: > 20000 nM
IC50 [2]: 16 nM

Cc1nsc(Nc2nc3c(C(F)(F)F)cccc3s2)c1C(=O)Nc1ccc(Cl)c(F)c1 [Example 53, N-(4-Chloro-3-fluorophenyl)-3-methyl-5-{[4-(trifluoromethyl)-1,3-benzothiazol-2-yl]amino}-1,2-thiazole-4-carboxamide]
IC50 [1]: > 20000 nM
IC50 [2]: 590 nM

Cc1nsc(Nc2cc(C#N)ccn2)c1C(=O)Nc1ccc(Cl)c(F)c1 [Example 54, N-(4-Chloro-3-fluorophenyl)-5-[(4-cyanopyridin-2-yl)amino]-3-methyl-1,2-thiazole-4-carboxamide]
IC50 [1]: > 20000 nM
IC50 [2]: 30 nM

CCOC(=O)c1cnn2ccc(Nc3snc(C)c3C(=O)Nc3ccc(F)c(F)c3)nc12 [Example 55, Ethyl 5-({4-[(3,4-difluorophenyl)carbamoyl]-3-methyl-1,2-thiazol-5-yl}amino)-pyrazolo[1,5-a]pyrimidine-3-carboxylate]
IC50 [1]: > 20000 nM
IC50 [2]: 460 nM

Cc1nsc(Nc2cnccn2)c1C(=O)Nc1ccc(Cl)c(F)c1 [Example 56, N-(4-Chloro-3-fluorophenyl)-3-methyl-5-(pyrazin-2-ylamino)-1,2-thiazole-4-carboxamide]
IC50 [1]: > 20000 nM
IC50 [2]: 250 nM

Cc1nsc(Nc2ccn3nccc3n2)c1C(=O)Nc1ccc(F)c(F)c1 [Example 57, N-(3,4-Difluorophenyl)-3-methyl-5-(pyrazolo[1,5-a]pyrimidin-5-ylamino)-1,2-thiazole-4-carboxamide]
IC50 [1]: > 20000 nM
IC50 [2]: 390 nM
